{"source": "patent US20250062040A1", "about": "“COMPUTER-BASED SYSTEMS FOR ACQUIRING AND ANALYZING OBS[…] DATA” (priority 2021, published 2025)", "key": {"[1]": {"test": "pEEG deep learning drug class classifier", "type": "in vivo", "settings": "classifier trained with a set that did not include the drug, FIG. 25", "description": "Briefly, the network may be based on a bidirectional Long Short-Term Memory (LSTM, 32 hidden units) layer, two fully connected layers (“elu and “softmax” activations), batch normalization and dropout layers. The model may be trained using cross-entropy loss function and “adam” optimizer, for at least 30-50 epochs. The last layer of the model may be a dense layer, which may provide probabilities for more than a dozen drug classes.\nIn some embodiments, to improve the robustness of the predictive model, independent implementations of a general model architecture may be built by randomly initializing the weights for the RNN. Final predictions may be derived from the model with highest accuracy, or from the average such as the median or mean results from all trained models. To check the accuracy of the resulting model system, different cross validation approaches may be used such as a n-samples-out, or n-doses-out, and/or a whole-drug-out, where an n-samples subset, an n-doses subset, and/or a whole drug, respectively, may be systematically removed from the training dataset, and the rest of the drugs may be used for training a new model. The excluded data may then be used for model validation as a test set. Model prediction may be done at a sample level, so as to get a prediction for a given drug-dose. […]"}, "[2]": {"test": "SmartCube / behavioral platform total activity and Class signature", "type": "in vivo", "from_the_text": "In some embodiments, one or more techniques described herein may quantify at least one activity score that may be quantified based on a discriminability score between at least two datasets, where the discriminability score may refer to an accuracy of a classifier, or a quantity derived therefrom. At least one dataset is a control group. In some embodiments, one or more techniques described herein may quantify at least one similarity value, which is the complement of the at least one activity value, where at least two groups are compared.\nIn some embodiments, one or more techniques described herein may calculate the activity score between the two groups using, for example, without limitation, a binary machine learning classifier. In some embodiments, a discriminability score of the at least two groups, as assessed by the classifier, may be used as the at least one activity score, representing how phenotypically different the two groups are. For example, the at least two groups may refer to a treatment group and a vehicle group associated with the at least two datasets.\nIn some embodiments, one or more techniques described herein may utilize a machine learning algorithm to perform the following steps: obtaining a plurality of subsamples, where a number, k, of iterations of the plurality of subsamples of a larger group match sample size n of a smaller group. […]"}, "[3]": {"test": "psychedelic-related behaviors (HTR, ESH, ELO) in behavioral platform videos", "type": "in vivo, mice", "from_the_text": "FIG. 71 illustrates a response curve for R-(−)-4-iodo-2,5-dimethoxyamphetamine (DOI), showing anxiolytic, another therapeutic signal, and the head twitch response (HTR) in accordance with one or more embodiments of the present disclosure. FIG. 71 represents a signature of DOI in a behavioral platform, where multiple classes can be collapsed into a few classes of interest. For example, multiple classes can be collapsed into five classes of interest for simplicity.\nIn some embodiments, the first step may be to generate a collection of ground-truth examples by manually identifying features corresponding to behaviors of interest (e.g., using a labelling software or platform to add labels identifying such features). Each experimental session can be recorded in terms of precise start and end frame which can set the predefined duration of the experimental session. For manual identification purposes, the system may use a top camera view, at a 50% slower viewing speed, although other angles from the other cameras and other sensors such as piezoelectric and thermal sensors may also be used, and the resulting data integrated. Class analysis (e.g., FIG. 71), on the other hand, may include data acquired from all sensors of a behavioral platform.\nThe disclosed embodiments can extract behavioral features corresponding to exemplary behaviors. The disclosed embodiments are not limited to any particular implementation of these features. In some embodiments, a behavioral feature can be implemented as a time-stamped indication that a behavior occurred at that time, or a Boolean value in a time series indicating the occurrence of a behavior. In some embodiments, a training dataset including observational data and corresponding, manually identified features can be used to train the machine learning classifier.\nFIG. 76 illustrates graphs illustrating a quantification of psychedelic-related behaviors detected in behavioral platform videos: ear scratch with hind paw (ESH), head twitch response (HTR), and elongation-contraction (ELO) for LSD and DOI at two doses in accordance with one or more embodiments of the present disclosure. FIG. 76 indicates a number of occurrences of HTRs, ESH, and ELOs, in behavioral platform videos of mice treated with DOI, LSD or vehicle, in triplicates, were recorded during the periods of rest for a total of 12 minutes for each subject."}, "[4]": {"test": "SmartCube diagonal index (DD) similarity ranking and psychedelic profile", "type": "in vivo", "settings": "ranked among 90 reference drugs", "description": "The similarity score for each of the dose-dose pairs of the T and R drugs was computed and used to calculate the diagonal index for each T-R drug pair or DDTiRj. For each Ti drug, the Rj drugs were then ranked by the corresponding DDTiRj."}, "[5]": {"test": "eye temperature by automated thermographic system of behavioral platform", "type": "in vivo, mice", "settings": "various doses, FIG. 39", "from_the_text": "In some embodiments, with regard to image calibration, in an experimental session, actual Peltier temperatures may be logged and saved along with the thermal camera video. The logged Peltier temperatures in Celsius can be paired to the optical density (OD) levels measured at the two Peltier ROIs in each corresponding frame, so that a linear calibration curve can be used to convert the OD of measured eye ROIs to degrees Celsius.\nIn some embodiments, the subject body, such as a mouse, can be segmented based on the optical density distribution on each frame. The contour of the mouse can be masked by finding the largest eight-connected objects in the binarized image as shown in FIG. 36. […] The size of the eye region relative to the mask and shape properties such as ‘Eccentricity’ (ratio of the distance between the foci of the ellipse and its major axis length) and ‘Solidity’ (proportion of the pixels in the convex hull that are also in the region, computed as Area/ConvexArea) can be measured to filter out false positives, when those parameters may be outside of the range learned from manually annotated ground truth examples.\nIn some embodiments, with regard to feature extraction, the average OD of automatically detected eye ROIs can be converted to Celsius based on the calibration curve. […]"}, "[6]": {"system": "Q175 heterozygous (HET) mice model of Huntington Disease", "test": "DBSA query with Q175 HET target signature", "type": "in vivo", "settings": "Q175 HET at 6 months vs WT", "from_the_text": "In some embodiments, illustrative computing devices of present disclosure can be programmed with one or more techniques of the present disclosure to screen active reference compounds against an animal model of a neurodegenerative disease. As an example, in an application of DBSA, the Q175 heterozygous (HET) mice model of Huntington Disease was used to generate a target signature. Male and female cohorts of the Q175 HET model mice at 6 months were compared against the associated wild type (WT) controls. The DBSA Target signature model for the Q175 HET at 6 months is, for example, illustrated in FIG. 56. The target signature was used to query a database containing list signatures for reference compounds profiled at multiple doses.\n(§1) Of interest was the identification of the atypical antidepressant tianeptine, currently not used for the treatment of HD in the clinic. […] A control group of WT mice was treated equally with saline. […] The beneficial effect of tianeptine was quantified using DRFA, which transforms the original subject feature profile to a non-redundant, decorrelated ranked 2D features space. The non-redundant decorrelated ranked features space was used to calculate the discrimination between control (WT treated with saline) and disease group (Q175 HET group treated with saline). The disease group (Q175 HET) treated with tianeptine was then projected onto this 2D space and its proximity to the control group was calculated."}, "[7]": {"test": "DBSA query with scopolamine target signature", "type": "in vivo", "from_the_text": "In some embodiments, illustrative computing devices of the present disclosure can be programmed with one or more techniques of the present disclosure to identify a novel cognitive enhancer compound by querying a large library of compounds profiled in by a behavioral platform. This example is based on a hypothesis that compounds with a drug-induced behavioral data profile that is reversed to that of scopolamine, which impairs cognition, are potentially cognitive enhancers. Other ways to impair cognition, such as other drugs or genetic manipulations, can be used to generate similar hypotheses.\nThe target signature was used to query a library of list signatures associated with active library and reference compounds to rank the compounds by their capacity to reverse the behavioral response to scopolamine."}, "Q175 HET mice": {"system": "Q175 HET mice", "test": "treatment of Q175 HET mice, recovery quantified using DRFA", "type": "in vivo", "settings": "20 mg/kg, FIG. 62", "protocol": "as §1"}, "[8]": {"settings": "periods of rest, total 12 minutes per subject, vs vehicle, two doses, FIG. 76"}}, "data": [{"molecule": "CN(C)CCC=C1c2ccccc2CCc2ccccc21", "note": "[Amitriptyline]", "values": [{"measurement": "therapeutic class signature by pEEG classifier", "setting": "[1]", "value": "clean antidepressant signal"}]}, {"molecule": "COc1cc(C[C@@H](C)N)c(OC)cc1I", "note": "[DOI, R-(−)-4-iodo-2,5-dimethoxyamphetamine]", "values": [{"measurement": "class signal of behavioral platform classifier", "setting": "[2]; FIG. 71, classes collapsed into five classes", "value": "predominant anxiolytic therapeutic signal"}, {"measurement": "head twitch response (HTR) dose-response", "setting": "[3]; FIG. 71, two doses", "value": "high at both doses"}, {"measurement": "number of occurrences of HTRs", "setting": "[3]; [8]", "value": "most robust increase"}, {"measurement": "number of occurrences of ear scratches (ESH)", "setting": "[3]; [8]", "value": "most robust increase"}]}, {"molecule": "CCN(CC)C(=O)[C@@H]1C=C2c3cccc4[nH]cc(c34)C[C@H]2N(C)C1", "note": "[LSD, lysergic acid diethylamide]", "values": [{"measurement": "total activity as a function of dose", "setting": "[2]; calculated against vehicle control, activity rescaled 0% to 100%, threshold 70%, FIG. 64", "value": "only the 3 mg/kg and 5 mg/kg being different from vehicle in a statistically significant manner"}, {"measurement": "rank of diagonal index DDTT (similarity of a second run to a previous run of the same drug)", "setting": "[4]", "value": "very high"}, {"measurement": "number of occurrences of ear scratches (ESH)", "setting": "[3]; [8]", "value": "did not result in occurrences of ear scratches"}, {"measurement": "number of occurrences of elongation-contraction (ELO)", "setting": "[3]; [8]", "value": "significant increase in the number of ELOs"}]}, {"molecule": "CNC(C)Cc1ccc2c(c1)OCO2", "note": "(centres unmarked) [MDMA, 3,4-methylenedioxymethamphetamine]", "values": [{"measurement": "eye temperature", "setting": "[5]", "value": "dose-dependent increase of eye temperature"}]}, {"molecule": "CC(NC(C)(C)C)C(=O)c1cccc(Cl)c1", "note": "(centres unmarked) [bupropion]", "values": [{"measurement": "DBSA prediction against Q175 HET target signature", "setting": "[6]", "value": "top predictions"}, {"measurement": "therapeutic class signature by pEEG classifier", "setting": "[1]", "value": "more stimulant profile"}]}, {"molecule": "CN1C(=O)CN=C(c2ccccc2)c2cc(Cl)ccc21", "note": "[diazepam]", "values": [{"measurement": "rank of diagonal index DDTT (similarity of a second run to a previous run of the same drug)", "setting": "[4]", "value": "third out of 90"}]}, {"molecule": "COc1cc2c(cc1OC)C(=O)C(CC1CCN(Cc3ccccc3)CC1)C2", "note": "(centres unmarked) [donepezil]", "values": [{"measurement": "DBSA reverse list signature to scopolamine target signature", "setting": "[7]; FIG. 60", "value": "among the top reverse list signature predictions"}]}, {"molecule": "COC(=O)C(c1ccccc1)C1CCCCN1", "note": "(centres unmarked) [methylphenidate]", "values": [{"measurement": "DBSA prediction against Q175 HET target signature", "setting": "[6]", "value": "top predictions"}]}, {"molecule": "NC(=O)C[S+]([O-])C(c1ccccc1)c1ccccc1", "note": "(centres unmarked) [modafinil]", "values": [{"measurement": "DBSA prediction against Q175 HET target signature", "setting": "[6]", "value": "top predictions"}]}, {"molecule": "CN1[C@@H]2C[C@@H](OC(=O)[C@H](CO)c3ccccc3)C[C@H]1[C@@H]1O[C@@H]12", "note": "[scopolamine]", "values": [{"measurement": "DBSA similarity to scopolamine target signature", "setting": "[7]; FIG. 59, at a different dose than the one used for the DBSA model", "value": "among the most similar compounds"}]}, {"molecule": "CN1c2ccccc2C(NCCCCCCC(=O)O)c2ccc(Cl)cc2S1(=O)=O", "note": "(centres unmarked) [tianeptine]", "values": [{"measurement": "DBSA prediction against Q175 HET target signature", "setting": "[6]", "value": "novel prediction"}, {"measurement": "rescue of behavioral phenotype of Q175 HET mice", "setting": "Q175 HET mice; acutely", "value": "significantly rescued the behavioral phenotype"}, {"measurement": "rescue of behavioral phenotype of Q175 HET mice", "setting": "Q175 HET mice; chronically (4-week regimen)", "value": "significantly rescued the behavioral phenotype"}]}]}
